This is an account of results in patent publication US9751824B2, “Acetyl salicyclic acid dimers, synthesis thereof, and uses thereof to prevent and treat complement-mediated disorders” (Aurin Biotech Inc., priority 2013, dated 2017).

The test concerns classical complement pathway. In words: CH50 assay, hemolysis of sensitized human red blood cells by zymosan-activated human serum. The class given is cell-based. Conditions: added at 1 mM; serum species not singled out (FIG. 3 covers human, rat, cat, dog). On the procedure:
To evaluate the strength of blockade of the classical complement pathway achieved by DAS-1 and DAS-2, a standard CH50 assay was employed. Normal human red blood cells were sensitized by incubation overnight with rabbit anti red blood cell antibody. Then dilutions of serum activated by zymosan, with and without various amounts of DAS-1, DAS-2, or the precursor acetylsalicylic acid, were incubated with the sensitized red blood cells for 1 hour at 37° C. The incubates were centrifuged at 5,000 rpm for 10 min. The hemoglobin released into the serum from red blood cells that had been destroyed by complement attack, was determined by reading the optical density (OD) at 405 nm. As a positive control, red blood cells were 100% lysed with water, and as a negative control, no serum was added to the incubate.
DAS-1 and DAS-2 protected human red blood cells from complement attack by zymogen activated serum of human, rat, cat, and dog. FIG. 3A illustrates the result for DAS-1.

With `CC(=O)Oc1ccccc1C(=O)O` [acetylsalicylic acid, reference compound], the “protective effect against hemolysis (FIG. 3C)” value is on record as “no protective effect”.
